The subject of experiment [1] is HDAC (HeLa nuclear extract). The experiment is described as follows: Test for evaluation of HDAC inhibitory activity (HDAC Fluorimetric Assay/Drug Discovery Kit, Biomol). The note with it: final concentration of test compound 30 μM, rates of more than 100% are shown as 100%. It is filed as biochemical. The procedure: Using HDAC Fluorimetric Assay/Drug Discovery Kit (manufactured by Biomol), HDAC inhibitory activity of the present compounds was measured according to the protocol included with the kit. The kit contains Buffer, HeLa nuclear extract (includes HDAC), Substrate, Developer and Trichostatin A (an HDAC inhibitor).
A test compound was dissolved in dimethyl sulfoxide, whereby a 2 mg/mL solution was prepared. Then, the resulting solution was diluted with Buffer containing 5% dimethyl sulfoxide, whereby a 150 μM test compound solution was prepared.
1) To a 384-well culture plate, the test compound solution was added in an amount of 2 μL per well.
2) HeLa nuclear extract was diluted 30-fold with Buffer. The resulting solution was added in an amount of 3 μL per well and then, incubation was performed at 37° C. for 2 hours.
3) Substrate was diluted 500-fold with Buffer. […]
5) The fluorescence intensity of each well was measured using multilabel counter ARVO (manufactured by Wallac) with excitation at 360 nm and emission at 460 nm. […]
Enzyme inhibitory rate (%) was calculated using the following equation. (Enzyme Inhibitory Rate(%))=100×[1−{(Fluorescence Intensity of Test Compound Solution)−(Florescence Intensity of Blank)}/{(Florescence Intensity of Control)−(Florescence Intensity of Blank)}] […]

The subject of experiment [2] is human trabecular meshwork cell line (TM-1 cells). Kind of experiment: Effect of morphological change on trabecular meshwork cells (cell shape index, CSI). It counts as cell-based. As to conditions: final concentration 10 μM, 24 hours, control CSI 0.679, lower CSI indicates greater morphological change. The protocol: As a method for evaluating a cellular morphological change, an evaluation system using the cell shape index (hereinafter referred to as “CSI”) as an index has been reported in The Journal of Clinical Investigation, 103, 1141-1150 (1999). Therefore, according to the method described in the above document, an effect of morphological change of the present compounds on trabecular meshwork cells was evaluated.
A human trabecular meshwork cell line (hereinafter referred to as “TM-1 cells”) reported in Investigative Opthalmology & Visual Science, 43, 151-161 (2002) was used.
Culture medium 1: A reagent was prepared by adding fetal bovine serum (10%), L-glutamine (2 mM), amphotericin B (2.5 μg/mL), and gentamicin (25 μg/mL) to Dulbecco's Modified Eagle Medium (hereinafter referred to as “D-MEM”).
Culture medium 2: Fetal bovine serum (3%), L-glutamine (2 mM), amphotericin B (2.5 μg/mL), and gentamicin (25 μg/mL) were added to D-MEM. […]
10) Using Array Scan Vti HCS reader (manufactured by Cellomics), images of stained cells magnified with a 20-fold objective lens were captured in 80 fields (10 fields×8 wells) per test compound addition group.
11) CSI was calculated for each cell and an average value was obtained for each test compound addition group.
CSI was calculated using the following equation. […]

The text below walks through data of US8012972B2, “Pyridinecarboxylic acid (2-aminophenyl) amide derivative having urea structure” (Santen Pharmaceutical Co., Ltd., priority 2007, dated 2011).

For `Nc1ccccc1NC(=O)c1ccc(CN(CCCN2CCCCC2)C(=O)NCCc2ccccc2)cn1` [Compound 1-3], the “Enzyme Inhibitory Rate (%)” value in experiment [1] came out at 100%. This compound registered a CSI in experiment [2] of 0.569.
